Experimental data as given in US11180474B2 (BRISTOL-MYERS SQUIBB COMPANY, priority 2016, dated 2021).

How the values were obtained:
[1] = biological target: T1, human TLR7 (Homo sapiens, UniProt Q9NYK1); assay: TLR7 inhibition reporter assay (HEK-Blue cells, SEAP reporter, gardiquimod stimulation); type: cell-based; details: HEK-Blue cells overexpressing human TLR7, gardiquimod 7.5 μM
T1 construct: host or cells: HEK-Blue cells
T1 sequence (Q9NYK1 27-1049): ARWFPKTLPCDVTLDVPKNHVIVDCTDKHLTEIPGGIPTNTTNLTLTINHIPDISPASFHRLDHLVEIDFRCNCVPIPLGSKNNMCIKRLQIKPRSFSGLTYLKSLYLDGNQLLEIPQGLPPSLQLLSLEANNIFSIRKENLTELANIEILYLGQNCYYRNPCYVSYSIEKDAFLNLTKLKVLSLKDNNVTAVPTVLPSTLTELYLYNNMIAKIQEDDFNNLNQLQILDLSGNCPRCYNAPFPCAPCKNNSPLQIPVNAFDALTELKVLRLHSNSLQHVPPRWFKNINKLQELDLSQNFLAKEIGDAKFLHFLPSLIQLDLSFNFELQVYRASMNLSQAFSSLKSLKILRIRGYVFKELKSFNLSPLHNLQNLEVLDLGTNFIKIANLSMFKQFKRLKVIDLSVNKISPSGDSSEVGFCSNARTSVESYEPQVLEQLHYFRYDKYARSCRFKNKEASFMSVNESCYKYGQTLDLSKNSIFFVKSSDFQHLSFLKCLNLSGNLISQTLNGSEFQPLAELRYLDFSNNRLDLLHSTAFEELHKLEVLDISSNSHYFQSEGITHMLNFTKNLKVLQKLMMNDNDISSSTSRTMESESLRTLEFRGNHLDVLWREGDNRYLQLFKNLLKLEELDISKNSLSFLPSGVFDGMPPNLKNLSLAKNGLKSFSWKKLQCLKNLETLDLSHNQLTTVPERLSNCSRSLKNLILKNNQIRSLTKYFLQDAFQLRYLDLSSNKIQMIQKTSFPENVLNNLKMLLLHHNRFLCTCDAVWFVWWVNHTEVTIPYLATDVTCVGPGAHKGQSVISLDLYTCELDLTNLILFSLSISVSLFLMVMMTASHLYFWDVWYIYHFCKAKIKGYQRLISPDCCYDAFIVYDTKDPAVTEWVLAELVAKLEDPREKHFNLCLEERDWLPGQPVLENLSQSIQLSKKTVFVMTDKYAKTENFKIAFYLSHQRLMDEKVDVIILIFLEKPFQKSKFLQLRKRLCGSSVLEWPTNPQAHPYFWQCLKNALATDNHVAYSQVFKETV
Summary of the method: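 SEAP readout via HEK-Blue Detection medium after 22 h at 37 °C, 5% CO2 defines inhibition, normalized between agonist-plus-DMSO wells and a reference inhibitor. Compound dose range 0.05 nM–50 μM; TLR7 cells at 15,000/well (gardiquimod), TLR8 at 20,000/well (R848).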

[2] = biological target: T2, human TLR8 (Homo sapiens, UniProt Q9NR97); assay: TLR8 inhibition reporter assay (HEK-Blue cells, SEAP reporter, R848 stimulation); type: cell-based; details: HEK-Blue cells overexpressing human TLR8, R848 15.9 μM
T2 construct: host or cells: HEK-Blue cells
T2 sequence (Q9NR97 27-1041): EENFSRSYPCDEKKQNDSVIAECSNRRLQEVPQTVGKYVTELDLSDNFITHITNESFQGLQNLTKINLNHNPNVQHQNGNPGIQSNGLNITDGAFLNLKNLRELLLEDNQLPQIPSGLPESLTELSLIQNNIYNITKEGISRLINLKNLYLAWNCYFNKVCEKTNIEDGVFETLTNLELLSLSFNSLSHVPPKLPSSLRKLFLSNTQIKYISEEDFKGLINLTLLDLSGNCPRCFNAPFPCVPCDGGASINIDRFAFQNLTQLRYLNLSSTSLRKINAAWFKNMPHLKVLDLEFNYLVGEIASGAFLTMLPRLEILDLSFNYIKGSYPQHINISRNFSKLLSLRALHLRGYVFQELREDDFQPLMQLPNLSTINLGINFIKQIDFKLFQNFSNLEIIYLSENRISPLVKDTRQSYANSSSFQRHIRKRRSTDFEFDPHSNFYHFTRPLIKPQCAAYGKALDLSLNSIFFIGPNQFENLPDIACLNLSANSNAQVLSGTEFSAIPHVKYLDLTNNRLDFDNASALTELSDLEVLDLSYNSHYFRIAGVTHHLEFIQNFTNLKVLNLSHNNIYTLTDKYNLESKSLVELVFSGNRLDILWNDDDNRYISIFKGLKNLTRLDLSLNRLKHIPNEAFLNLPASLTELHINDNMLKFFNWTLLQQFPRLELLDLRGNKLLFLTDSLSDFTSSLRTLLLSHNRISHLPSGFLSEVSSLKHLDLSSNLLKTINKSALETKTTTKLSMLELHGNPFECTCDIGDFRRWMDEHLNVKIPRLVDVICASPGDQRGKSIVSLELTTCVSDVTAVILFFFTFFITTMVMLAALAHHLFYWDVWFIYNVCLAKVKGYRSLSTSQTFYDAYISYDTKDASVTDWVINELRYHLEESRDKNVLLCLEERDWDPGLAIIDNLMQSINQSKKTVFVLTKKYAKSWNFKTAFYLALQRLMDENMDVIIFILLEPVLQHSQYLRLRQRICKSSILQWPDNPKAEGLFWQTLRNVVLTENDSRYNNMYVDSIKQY
Protocol: TLR7/8/9 Inhibition Reporter Assays
Briefly, cells are seeded into Greiner 384 well plates (15000 cells per well for TLR7, 20,000 for TLR8 and 25,000 for TLR9) and then treated with test compounds in DMSO to yield a final dose response concentration range of 0.05 nM-50 μM. […] After a 22 hour incubation at 37° C., 5% CO2, SEAP levels are determined with the addition of HEK-Blue™ Detection reagent (Invivogen), a cell culture medium that allows for detection of SEAP, according to manufacturer's specifications. The percent inhibition is determined as the % reduction in the HEK-Blue signal present in wells treated with agonist plus DMSO alone compared to wells treated with a known inhibitor.

SMILES	IC50 [1] [nM]	IC50 [2] [nM]
CCc1c(-c2ccc(OC)c(OC)c2)[nH]c2ccc(C3CCN(C(=O)CN4CCCC(C(=O)O)C4)CC3)cc12 (racemic) [Example 176, 1-(2-(4-(2-(3,4-dimethoxyphenyl)-3-ethyl-1H-indol-5-yl)piperidin-1-yl)-2-oxoethyl)piperidine-3-carboxylic acid]	8920	6550
CCc1c(-c2ccc(OC)c(OC)c2)[nH]c2ccc(C3CCN(C(=O)CN4CCCC(C(=O)N(CC)CC)C4)CC3)cc12 (single isomer, unassigned) [Example 178, 1-(2-(4-(2-(3,4-dimethoxyphenyl)-3-ethyl-1H-indol-5-yl)piperidin-1-yl)-2-oxoethyl)-N,N-diethylpiperidine-3-carboxamide]	480	131
CCc1c(-c2ccc(OC)c(OC)c2)[nH]c2ccc(C3CCN(C(=O)CN4CCCC(C(=O)N(CC)CC)C4)CC3)cc12 (single isomer, unassigned) [Example 179, 1-(2-(4-(2-(3,4-dimethoxyphenyl)-3-ethyl-1H-indol-5-yl)piperidin-1-yl)-2-oxoethyl)-N,N-diethylpiperidine-3-carboxamide]	280	68
COc1ccc(-c2[nH]c3ccc(C4CCN(C5CCN(CC(C)C)CC5)CC4)cc3c2C)cc1OC [Example 6, 2-(3,4-dimethoxyphenyl)-5-(1′-isobutyl-[1,4′-bipiperidin]-4-yl)-3-methyl-1H-indole]	1230	247
COc1ccc(-c2[nH]c3ccc(C4CCN(C5CCN(Cc6ccccc6)CC5)CC4)cc3c2C)cc1OC [Example 9, 5-(1′-benzyl-[1,4′-bipiperidin]-4-yl)-2-(3,4-dimethoxyphenyl)-3-methyl-1H-indole]	1550	457
COc1ccc(-c2[nH]c3ccc(C4CCN(C5CCN(C(C)C)CC5)CC4)cc3c2C)cc1OC [Example 10, 2-(3,4-dimethoxyphenyl)-5-(1′-isopropyl-[1,4′-bipiperidin]-4-yl)-3-methyl-1H-indole]	606	201
CNCCN1CCC(c2ccc3c(c2)c(C)c(-c2ccc(OC)c(OC)c2)n3C)CC1 [Example 114, 2-(4-(2-(3,4-dimethoxyphenyl)-1,3-dimethyl-1H-indol-5-yl)piperidin-1-yl)-N-methylethan-1-amine]	5260	958
COc1ccc(-c2[nH]c3cc(C)c(C4CCN(C5CCN(C(C)C)CC5)CC4)cc3c2C)cc1OC [Example 115, 2-(3,4-dimethoxyphenyl)-5-(1′-isopropyl-[1,4′-bipiperidin]-4-yl)-3,6-dimethyl-1H-indole-di-trifluoroacetic acid]	132	2230
CNCCN1CCC(c2ccc3[nH]c(-c4ccc(OC)c(OC)c4)c(CC(C)C)c3c2)CC1 [Example 116, trifluoroacetic acid]	1290	95
COc1ccc(-c2[nH]c3ccc(C4CCN(C5CCN(CC(C)C)CC5)CC4)cc3c2Cl)cc1OC [Example 120, 3-chloro-2-(3,4-dimethoxyphenyl)-5-(1′-isobutyl-[1,4′-bipiperidin]-4-yl)-1H-indole di-trifluoroacetic acid]	2740	1260
CCCc1c(-c2ccc(OC)c(OC)c2)[nH]c2ccc(C3CCN(C4CCN(CC(C)C)CC4)CC3)cc12 [Example 121, 2-(3,4-dimethoxyphenyl)-5-(1′-isobutyl-[1,4′-bipiperidin]-4-yl)-3-propyl-1H-indole-di-trifluoroacetic acid]	661	65
CCc1c(-c2ccc(OC)c(OC)c2)[nH]c2ccc(C3CCNCC3)cc12 [Example 122, 2-(3,4-dimethoxyphenyl)-3-ethyl-5-(piperidin-4-yl)-1H-indole]	57	26
CCc1c(-c2ccc(OC)c(OC)c2)[nH]c2ccc(C3CCN(C4CCN(CC(C)C)CC4)CC3)cc12 [Example 123, 2-(3,4-dimethoxyphenyl)-3-ethyl-5-(1′-isobutyl-[1,4′-bipiperidin]-4-yl)-1H-indole-di-trifluoroacetic acid]	398	150
CCc1c(-c2ccc(OC)c(OC)c2)[nH]c2ccc(C3CCN(C4CCN(Cc5cnc(C)o5)CC4)CC3)cc12 [Example 124, 5-((4-(2-(3,4-dimethoxyphenyl)-3-ethyl-1H-indol-5-yl)-[1,4′-bipiperidin]-1′-yl)methyl)-2-methyloxazole]	1870	248
CCc1c(-c2ccc(OC)c(OC)c2)[nH]c2ccc(C3CCN(C4CCN(Cc5c[nH]cn5)CC4)CC3)cc12 [Example 125, 5-(1′-((1H-imidazol-4-yl)methyl)-[1,4′-bipiperidin]-4-yl)-2-(3,4-dimethoxyphenyl)-3-ethyl-1H-indole]	182	150
CCc1c(-c2ccc(OC)c(OC)c2)[nH]c2ccc(C3CCN(C4CCN(Cc5coc(C)n5)CC4)CC3)cc12 [Example 126, 4-((4-(2-(3,4-dimethoxyphenyl)-3-ethyl-1H-indol-5-yl)-[1,4′-bipiperidin]-1′-yl)methyl)-2-methyloxazole]	920	114
CCOC(=O)c1c(C)[nH]c(CN2CCC(N3CCC(c4ccc5[nH]c(-c6ccc(OC)c(OC)c6)c(CC)c5c4)CC3)CC2)c1C [Example 127, ethyl 5-((4-(2-(3,4-dimethoxyphenyl)-3-ethyl-1H-indol-5-yl)-[1,4′-bipiperidin]-1′-yl)methyl)-2,4-dimethyl-1H-pyrrole-3-carboxylate]	1620	345
CCc1c(-c2ccc(OC)c(OC)c2)[nH]c2ccc(C3CCN(C4CCN(Cc5cc6ccccc6[nH]5)CC4)CC3)cc12 [Example 128, 5-(1′-((1H-indol-2-yl)methyl)-[1,4′-bipiperidin]-4-yl)-2-(3,4-dimethoxyphenyl)-3-ethyl-1H-indole]	3280	629
CCc1c(-c2ccc(OC)c(OC)c2)[nH]c2ccc(C3CCN(C4CCN(Cc5csnn5)CC4)CC3)cc12 [Example 130, 4-((4-(2-(3,4-dimethoxyphenyl)-3-ethyl-1H-indol-5-yl)-[1,4′-bipiperidin]-1′-yl)methyl)-1,2,3-thiadiazole]	4170	792
